The record followed here is patent US20190290671A1, “HYPOLIPIDEMIC EFFECTS OF COMPOSITIONS COMPRISING BETA-GLUCOGALLIN” (priority 2018, published 2019).

The assay in a line: body weight of high fat diet fed rats. In kind it is in vivo, Albino Rat (Wistar). Particulars: HFD + 3 mg/kgbw. The method, then:
Performance of the Test • Feed: The animals were fed with Normal diet (9 kcal/day) and High fat diet (50 kcal/day) throughout the acclimatization and experimental period. The normal diet and High Fat diet were prepared as follows.
Body weight of the animals was recorded in 0th, 15th, 25th, 40th, 60th and 84th day of experimental period. At 0th day, 1 ml Tail blood was collected from each animal of all the groups and serum was separated. At the end of the experimental period (84th day), the animals were sacrificed by cervical dislocation. Blood was collected and serum was separated by centrifugation and used for the analysis of biochemical parameters.
The test item was administered through oral route by gavage.
Experimental Methods • Measurement of Body weight • Estimation of Cholesterol (CHOD/POD Method) • Estimation of Triglycerides (GPO/POD Method) • Estimation of HDL Cholesterol (HDL Cholesterol Direct Reagent Kit, Beacon) • Determination of LDL Cholesterol (LDL Cholesterol Direct Reagent Kit, Beacon)

For `CC(C)c1c(C(=O)Nc2ccccc2)c(-c2ccccc2)c(-c2ccc(F)cc2)n1CC[C@@H](O)C[C@@H](O)CC(=O)O` [STATIN, Atrovastin], the “Mean Body Weight” value is, setting by setting: (0th Day) 108.33 ± 6.83 g; (15th Day) 127.50 ± 6.90 g; (25th Day) 139.16 ± 5.84 g; (40th Day) 155.83 ± 7.35 g; (60th Day) 165.83 ± 9.70 g; (84th Day) 172.50 ± 9.35 g.
